Reference: patent US20090088380A1, “GHRH ANALOGS AND THERAPEUTIC USES THEREOF” (priority 2007, published 2009)
Non-standard residues stand in square brackets, D forms with d. Residues, ends and D or L forms follow the SMILES beside them.

What was measured:
[1] = test system: malnourished subjects with CKD; assay: Phase II CKD: Subjective Global Assessment (SGA); assay type: in vivo, human; details: for SGA mild to moderately malnourished: (%) / SGA mild to moderately malnourished: n / SGA severely malnourished: (%) / SGA severely malnourished: n / SGA well nourished: (%) / SGA well nourished: n: ITT
From the text: An SGA was an overall evaluation of a subject by an experienced clinician that correlated with the subjective and objective aspects of a medical history and physical examination. An SGA was completed at both the screening and baseline visits, on Day 28 and at the follow-up visit. Review of the medical history included an assessment of weight and weight change, dietary intake, gastrointestinal symptoms, disease state, and the subject's functional status. The SGA also included a physical examination for negative changes in body composition such as loss of subcutaneous fat or muscle wasting, and signs of oedema or ascites (nutrition-related). After evaluation, the subject was classified as well nourished (A), mild to moderately malnourished (B), or severely malnourished (C).

[2] = test system: antibodies to the GHRH(1-29)NH2 synthetic analog; assay: Phase I/II study: human anti-GHRH antibodies ELISA; assay type: in vivo; details: Day 30 sample, at the dilution tested
Protocol: On Day 30, an ambulatory control visit took place. Clinical assessments were performed and adverse events were reported. A blood sample was taken to determine the presence of antibodies the GHRH(1-29)NH2 synthetic analog.
Once the volunteers were considered eligible, they were hospitalized for a period of 5 consecutive days. On Day 0 of admission successive samples of blood were taken to perform the basal secretion profile of GH during 24 hours. During 5-day hospitalization period, after the initial blood sampling to determine fasting glucose level, the appropriate dose of the GHRH(1-29)NH2 synthetic analog or placebo was administered and multiple samplings were performed to assess the profile of GH, postprandial glucose level and electrocardiogram after 60 minutes of the application of the GHRH(1-29)NH2 synthetic analog/placebo. Eight hours after drug administration, samples were obtained to determine IGF-1 level, thyroid hormones and routine analysis. After 30 days of admission, all the volunteers returned for new clinical evaluation to record any adverse events that could have occurred from the last day of hospitalization period and to take a blood sample for later determination of anti-GHRH(1-29)NH2 synthetic analog antibodies.
Human anti-GHRH antibodies were measured in ELISA developed LAB Pre-Clinical Research Intl.

[3] = test system: Canine Growth Hormone; assay: In vivo GH secretion in a male Beagle dog, escalating SC doses, RIA
From the text: In order to assess such use of the GHRH analogs, the following experiments were undertaken. […] The above GHRH analog is a variation of a synthetic acetate salt of an amidated synthetic 29-amino acid peptide that corresponds to the amino-terminal segment of the naturally-occurring human growth hormone—releasing hormone (GHRH) with four amino acid substitutions in positions 2, 10, 15, and 22.
Prior to administration, all dosing formulations were filtered using a 0.22 μm filter to ensure sterility. […] Dosing started at approximately the same time each day, commencing at 9:00 am ±30 minutes.
For pharmacodynamic investigations, blood samples (approximately 1.0 ml) were collected from the dog on each treatment day via a jugular venipuncture at the following time points: pre-dose, 7, 15, 22, 30, 45, and 60 minutes post dosing. All blood samples were collected into potassium EDTA tubes and centrifuged under refrigeration (2 to 8° C., 1500 g for 10 minutes).
Plasma GH was determined by Linco Diagnostic Services using their own kit. Linco's Porcine/Canine Growth Hormone radioimmunoassay kit (RIA) (PGH-46HK) has been developed to quantitate Growth Hormone in plasma, serum, and tissue culture media. It is a completely homologous assay since the antibody was raised against recombinant Porcine Growth Hormone and both the standard and tracer are prepared with recombinant Porcine Growth Hormone. Since the amino acid sequences of Porcine Growth Hormone and Canine Growth Hormone are identical, this assay developed for Porcine Growth Hormone measures Canine Growth Hormone levels with equal efficiency. All components are included (standards, antibody, tracer, quality controls, precipitating reagents and buffer) necessary to complete a RIA. The assay was conducted under the following conditions: overnight; equilibrium incubation at room temperature; sample volume: 100 μl serum, plasma, or cell culture media.

[4] = Baseline, listed as GHRH(1-29)NH2 synthetic analog

CC[C@H](C)[C@H](NC(=O)[C@H](C)NC(=O)[C@H](CC(=O)O)NC(=O)[C@@H](C)NC(=O)[C@@H](N)Cc1ccc(O)cc1)C(=O)N[C@@H](Cc1ccccc1)C(=O)N[C@H](C(=O)N[C@@H](CC(N)=O)C(=O)N[C@@H](CO)C(=O)N[C@H](Cc1ccc(O)cc1)C(=O)N[C@@H](CCCNC(=N)N)C(=O)N[C@@H](CCCCN)C(=O)N[C@H](C(=O)N[C@@H](CC(C)C)C(=O)N[C@H](C)C(=O)N[C@@H](CCC(N)=O)C(=O)N[C@@H](CC(C)C)C(=O)N[C@@H](CO)C(=O)N[C@@H](C)C(=O)N[C@@H](CCCNC(=N)N)C(=O)N[C@@H](CCCCN)C(=O)N[C@@H](CCCCN)C(=O)N[C@@H](CC(C)C)C(=O)N[C@@H](CCC(N)=O)C(=O)N[C@@H](CC(=O)O)C(=O)N[C@H](C(=O)N[C@@H](CCSC)C(=O)N[C@@H](CO)C(=O)N[C@@H](CCCNC(=N)N)C(N)=O)[C@@H](C)CC)C(C)C)[C@@H](C)O [GHRH analog #5, [D-Ala^2, D-Tyr^10, D-Ala^15, Lys^22] hGHRH(1-29)-NH2] (H-Y[dA]DAIFTNS[dY]RKVL[dA]QLSARKKLQDIMSR-NH2)
SGA mild to moderately malnourished: (%) ([1]; Baseline): (69.2%) | SGA mild to moderately malnourished: n ([1]; Baseline): 9 | SGA severely malnourished: (%) ([1]; Baseline): (7.7%) | SGA severely malnourished: n ([1]; Baseline): 1 | SGA well nourished: (%) ([1]; Baseline): (23.1%) | SGA well nourished: n ([1]; Baseline): 3 | SGA severely malnourished: (%) [1, 4]: 7.7% | SGA well nourished: (%) [1, 4]: 23.1% | SGA mild to moderately malnourished: (%) ([1]; Day 28): (16.7%) | SGA mild to moderately malnourished: n ([1]; Day 28): 2 | SGA severely malnourished: (%) ([1]; Day 28): (8.3%) | SGA severely malnourished: n ([1]; Day 28): 1 | SGA well nourished: (%) ([1]; Day 28): (75.0%) | SGA well nourished: n ([1]; Day 28): 9 | SGA well nourished: (%) ([1]; Day 28, listed as GHRH(1-29)NH2 synthetic analog): 75.0% | Mild to moderate malnourished patients (of 9) who became well nourished ([1]; after 28 days of therapy): 6 | Detectable antibodies to the GHRH(1-29)NH2 synthetic analog [2]: None of the subject samples tested had detectable antibodies | Canine Growth Hormone ([3]; 0.01 mg/kg BW SC, 0 min): 1.99 ng/mL | Canine Growth Hormone ([3]; 0.01 mg/kg BW SC, 7 min): 1.99 ng/mL | Canine Growth Hormone ([3]; 0.01 mg/kg BW SC, 15 min): 5 ng/mL | Canine Growth Hormone ([3]; 0.01 mg/kg BW SC, 22 min): 4 ng/mL | Canine Growth Hormone ([3]; 0.01 mg/kg BW SC, 30 min): 11 ng/mL | Canine Growth Hormone ([3]; 0.01 mg/kg BW SC, 45 min): 17 ng/mL | Canine Growth Hormone ([3]; 0.01 mg/kg BW SC, 60 min): 11 ng/mL | Canine Growth Hormone ([3]; 0.1 mg/kg BW SC, 0 min): 1.99 ng/mL | Canine Growth Hormone ([3]; 0.1 mg/kg BW SC, 7 min): 5 ng/mL | Canine Growth Hormone ([3]; 0.1 mg/kg BW SC, 15 min): 9 ng/mL | Canine Growth Hormone ([3]; 0.1 mg/kg BW SC, 22 min): 7 ng/mL | Canine Growth Hormone ([3]; 0.1 mg/kg BW SC, 30 min): 6 ng/mL | Canine Growth Hormone ([3]; 0.1 mg/kg BW SC, 45 min): 5 ng/mL | Canine Growth Hormone ([3]; 0.1 mg/kg BW SC, 60 min): 1.99 ng/mL | Canine Growth Hormone ([3]; 1 mg/kg BW SC, 0 min): 1.99 ng/mL | Canine Growth Hormone ([3]; 1 mg/kg BW SC, 7 min): 4 ng/mL | Canine Growth Hormone ([3]; 1 mg/kg BW SC, 15 min): 14 ng/mL | Canine Growth Hormone ([3]; 1 mg/kg BW SC, 22 min): 9 ng/mL | Canine Growth Hormone ([3]; 1 mg/kg BW SC, 30 min): 19 ng/mL | Canine Growth Hormone ([3]; 1 mg/kg BW SC, 45 min): 7 ng/mL | Canine Growth Hormone ([3]; 1 mg/kg BW SC, 60 min): 7 ng/mL | Treatment-related clinical signs ([3]; dog): No treatment-related clinical signs were observed | GH response compared with natural hGHRH(1-44)NH2 ([3]; dog, AUC not measured): significantly larger | GH secretion into peripheral blood, dose dependence ([3]; dog, subcutaneous): dose-dependent response | Optimal sc dose ([3]; dogs): 10 μg/kg body weight
